In publication PMC5862516 (PLoS Neglected Tropical Diseases, 2018):
Where two headings read alike, the source gives them in different places.

Legend:
[1] = tested on: SOSV minigenome; assay: microbe, parasite or virus in culture; settings: Sosuga virus; for activity at 0.05 µM / activity at 0.5 µM / activity at 5 µM: Huh-7, 72 h, read-out: Minigenome activity (Relative ZsG fluorescence); for EC50: Huh-7, read-out: Minigenome Screen EC50
[2] = tested on: SOSV minigenome; settings: Huh7 cells; for Minigenome activity (Relative ZsG fluorescence): relative to mock-treated controls
[3] = in vitro; settings: human
[4] = tested on: rSOSV; assay: microbe, parasite or virus in culture; type: cell-based; settings: Sosuga virus, Huh-7, 48 h, read-out: EC50 (rSOSV protein immunofluorescence)
[5] = tested on: rSOSV/ZsG; assay: microbe, parasite or virus in culture; type: cell-based; settings: Sosuga virus, Huh-7, read-out: rSOSV/ZsG Screen EC50
[6] = tested on: Huh7 cells; settings: human
[7] = human, in vivo, 125 mg/kg/day; cited from earlier work

SMILES: COc1c(-c2ccc3cc(NS(C)(=O)=O)ccc3c2)cc(-n2ccc(=O)[nH]c2=O)cc1C(C)(C)C [ABT-333]
- activity at 0.05 µM [1]: 127%
- activity at 0.5 µM [1]: 108%
- activity at 5 µM [1]: 105%

SMILES: CC(C)OC(=O)[C@H](C)N[P@](=O)(OC[C@H]1O[C@@H](n2ccc(=O)[nH]c2=O)[C@](C)(F)[C@@H]1O)Oc1ccccc1 [PSI-7977]
- activity at 0.05 µM [1]: 102%
- activity at 0.5 µM [1]: 102%
- activity at 5 µM [1]: 89%

SMILES: Cc1cn([C@@H]2O[C@H](CO)[C@@H](O)[C@H]2O)c(=O)nc1N [5-Methylcytidine]
- activity at 0.05 µM [1]: 124%
- activity at 0.5 µM [1]: 110%
- activity at 5 µM [1]: 125%

SMILES: [N-]=[N+]=Nc1cn([C@@H]2O[C@H](CO)[C@@H](O)[C@H]2O)c(=O)[nH]c1=O [5-Azidouridine]
- activity at 0.05 µM [1]: 114%
- activity at 0.5 µM [1]: 104%
- activity at 5 µM [1]: 107%

SMILES: O=c1[nH]c(=O)n([C@@H]2O[C@H](CO)[C@@H](O)[C@H]2O)cc1Cl [5-Chlorouridine]
- activity at 0.05 µM [1]: 119%
- activity at 0.5 µM [1]: 125%
- activity at 5 µM [1]: 146%

SMILES: O=c1[nH]c(=O)n([C@@H]2O[C@H](CO)[C@@H](O)[C@H]2O)cc1Br [5-Bromouridine]
- activity at 0.05 µM [1]: 97%
- activity at 0.5 µM [1]: 92%
- activity at 5 µM [1]: 122%

SMILES: C[C@@]1(O)[C@H](O)[C@@H](CO)O[C@H]1n1ccc2c(N)ncnc21 [7-DMA]
- Minigenome activity (Relative ZsG fluorescence) ([2]; 50 nM): 1.26
- Minigenome activity (Relative ZsG fluorescence) ([2]; 500 nM): 1.02
- Minigenome activity (Relative ZsG fluorescence) ([2]; 5000 nM): 1.06

SMILES: Nc1ncn([C@@H]2O[C@H](CO)[C@@H](O)[C@H]2O)c(=O)n1 [5-Azacytidine]
- activity at 0.05 µM [1]: 146%
- activity at 0.5 µM [1]: 111%
- activity at 5 µM [1]: 108%

SMILES: O=c1cnn([C@@H]2O[C@H](CO)[C@@H](O)[C@H]2O)c(=O)[nH]1 [6-azauridine]
- viability [3]: > 80%
- CC50 [3]: > 50 µM
- EC50 [4]: 8.9 µM
- activity at 0.05 µM [1]: 120%
- activity at 0.5 µM [1]: 103%
- activity at 5 µM [1]: 46%
- EC50 [1]: 5.17 ± 1.01 µM
- EC50 [5]: 7.99 ± 1.32 µM

SMILES: Nc1ccn([C@@H]2O[C@H](CO)[C@@H](O)[C@H]2F)c(=O)n1 [2′-deoxy-2′-fluorocytidine]
- viability [3]: > 80%
- CC50 [3]: > 50 µM
- EC50 [4]: 4.09 µM
- activity at 0.05 µM [1]: 141%
- activity at 0.5 µM [1]: 91%
- activity at 5 µM [1]: 13%
- EC50 [1]: 1.31 ± 0.15 µM
- EC50 [5]: 1.48 ± 0.22 µM

SMILES: O=c1cnn([C@@H]2O[C@H](CO)[C@@H](O)[C@H]2O)c(=S)[nH]1 [6-Aza-2-thiouridine]
- activity at 0.05 µM [1]: 128%
- activity at 0.5 µM [1]: 95%
- activity at 5 µM [1]: 110%

SMILES: NC(=O)c1ncn([C@@H]2O[C@H](CO)[C@@H](O)[C@H]2O)n1 [Ribavirin]
- CC50 [3]: > 50 µM
- activity at 0.05 µM [1]: 136%
- activity at 0.5 µM [1]: 113%
- activity at 5 µM [1]: 78%
- EC50 [1]: 5.91 ± 0.85 µM
- EC50 [5]: 6.1 ± 0.09 µM

SMILES: CO[C@@H]1[C@H](O)[C@@H](CO)O[C@H]1n1ccc(=O)[nH]c1=O [2′-O-Methyluridine]
- activity at 0.05 µM [1]: 150%
- activity at 0.5 µM [1]: 104%
- activity at 5 µM [1]: 142%

SMILES: Nc1ncnc2c1ncn2[C@@H]1O[C@H](CO)C[C@H]1O [Cordycepin]
- activity at 0.05 µM [1]: 128%
- activity at 0.5 µM [1]: 104%
- activity at 5 µM [1]: 101%

SMILES: Nc1ncnc2c1nnn2[C@@H]1O[C@H](CO)[C@@H](O)[C@H]1O [8-Azaadenosine]
- activity at 0.05 µM [1]: 146%
- activity at 0.5 µM [1]: 85%
- activity at 5 µM [1]: 2%

SMILES: CC[C@H]1OC(=O)[C@H](C)[C@@H](O[C@H]2C[C@@](C)(OC)[C@@H](O)[C@H](C)O2)[C@H](C)[C@@H](O[C@@H]2O[C@H](C)C[C@H](N(C)C)[C@H]2O)[C@](C)(O)C[C@@H](C)CN(C)[C@H](C)[C@@H](O)[C@]1(C)O [Azithromycin]
- activity at 0.05 µM [1]: 102%
- activity at 0.5 µM [1]: 106%
- activity at 5 µM [1]: 111%

SMILES: NC(=O)c1nc(F)cnc1O [T-705]
- Minigenome activity (Relative ZsG fluorescence) ([2]; 50 nM): 1.11
- Minigenome activity (Relative ZsG fluorescence) ([2]; 500 nM): 1.17
- Minigenome activity (Relative ZsG fluorescence) ([2]; 5000 nM): 1.05

SMILES: [N-]=[N+]=N[C@]1(CO)O[C@@H](n2ccc(N)nc2=O)[C@H](O)[C@@H]1O [R-1479]
- Minigenome activity (Relative ZsG fluorescence) ([2]; 50 nM): 0.91
- Minigenome activity (Relative ZsG fluorescence) ([2]; 500 nM): 0.84
- Minigenome activity (Relative ZsG fluorescence) ([2]; 5000 nM): 0.73

SMILES: Nc1ncnc2c([C@@H]3N[C@H](CO)[C@@H](O)[C@H]3O)c[nH]c12 [BCX-4430]
- activity at 0.05 µM [1]: 133%
- activity at 0.5 µM [1]: 105%
- activity at 5 µM [1]: 118%

SMILES: O=c1[nH]c(=O)n([C@@H]2O[C@H](CO)[C@@H](O)[C@H]2O)cc1F [5-fluorouridine]
- viability [3]: > 80%
- CC50 [3]: > 50 µM
- Extent of minigenome signal inhibition and cytotoxicity ([2]; dose-response analysis): did not completely inhibit minigenome signal even at the highest concentrations evaluated
- activity at 0.05 µM [1]: 112%
- activity at 0.5 µM [1]: 25%
- activity at 5 µM [1]: 10%
- EC50 [1]: 0.29 ± 0.13 µM

SMILES: C[C@@]1(O)[C@H](O)[C@@H](CO)O[C@H]1n1ccc(=O)[nH]c1=O [2′-C-Methyluridine]
- activity at 0.05 µM [1]: 132%
- activity at 0.5 µM [1]: 101%
- activity at 5 µM [1]: 125%

SMILES: CC(C)C(=O)OC[C@H]1O[C@@H](n2ccc(N)nc2=O)[C@](C)(F)[C@@H]1OC(=O)C(C)C [R-7128]
- Minigenome activity (Relative ZsG fluorescence) ([2]; 50 nM): 0.84
- Minigenome activity (Relative ZsG fluorescence) ([2]; 500 nM): 0.87
- Minigenome activity (Relative ZsG fluorescence) ([2]; 5000 nM): 0.99

SMILES: CO[C@@H]1[C@H](O)[C@@H](CO)O[C@H]1n1ccc(N)nc1=O [2′-O-Methylcytidine]
- activity at 0.05 µM [1]: 129%
- activity at 0.5 µM [1]: 104%
- activity at 5 µM [1]: 119%

SMILES: Cc1cn([C@H]2C=C[C@@H](CO)O2)c(=O)[nH]c1=O [Stavudine]
- activity at 0.05 µM [1]: 126%
- activity at 0.5 µM [1]: 104%
- activity at 5 µM [1]: 115%

SMILES: C[C@@]1(O)[C@H](O)[C@@H](CO)O[C@H]1n1ccc(N)nc1=O [2′-C-Methylcytidine]
- activity at 0.05 µM [1]: 124%
- activity at 0.5 µM [1]: 104%
- activity at 5 µM [1]: 114%

SMILES: Cc1cn([C@H]2C[C@H](N=[N+]=[N-])[C@@H](CO)O2)c(=O)[nH]c1=O [Zidovudine]
- activity at 0.05 µM [1]: 123%
- activity at 0.5 µM [1]: 93%
- activity at 5 µM [1]: 113%

SMILES: COc1c(C)c2c(c(O)c1C/C=C(\C)CCC(=O)O)C(=O)OC2 [Mycophenolic acid]
- viability [3]: > 80%
- CC50 [3]: 1.7 µM
- CC50 [6]: 1.74 ± 0.42 µM
- Minigenome Screen EC50 ([2]; ZsG fluorescence 72 hpt, normalized to mock-treated (DMSO) cells, listed as MPA): sub-micromolar
- EC50 [4]: 0.48 µM
- activity at 0.05 µM [1]: 89%
- activity at 0.5 µM [1]: 14%
- activity at 5 µM [1]: 1%
- EC50 [5]: 0.33 ± 0.04 µM

SMILES: C[C@@]1(F)[C@H](O)[C@@H](CO)O[C@H]1n1ccc(N)nc1=O [PSI-6130]
- Minigenome activity (Relative ZsG fluorescence) ([2]; 50 nM): 0.84
- Minigenome activity (Relative ZsG fluorescence) ([2]; 500 nM): 0.85
- Minigenome activity (Relative ZsG fluorescence) ([2]; 5000 nM): 0.91

SMILES: [N-]=[N+]=Nc1nc2c(N)ncnc2n1[C@@H]1O[C@H](CO)[C@@H](O)[C@H]1O [8-Azidoadenosine]
- activity at 0.05 µM [1]: 120%
- activity at 0.5 µM [1]: 122%
- activity at 5 µM [1]: 1%

SMILES: CC(C)C(=O)OC[C@@]1(N=[N+]=[N-])O[C@@H](n2ccc(N)nc2=O)[C@H](OC(=O)C(C)C)[C@@H]1OC(=O)C(C)C [Balapiravir (R1626), Balapiravir]
- activity at 0.05 µM [1]: 105%
- activity at 0.5 µM [1]: 93%
- activity at 5 µM [1]: 90%

SMILES: C#C[C@@]1(O)[C@H](O)[C@@H](CO)O[C@H]1n1ccc2c(N)ncnc21 [NITD008]
- Minigenome activity (Relative ZsG fluorescence) ([2]; 50 nM): 1.35
- Minigenome activity (Relative ZsG fluorescence) ([2]; 500 nM): 1.07
- Minigenome activity (Relative ZsG fluorescence) ([2]; 5000 nM): 1.13

SMILES: C[C@H](Cn1cnc2c(N)ncnc21)OCP(=O)(O)O [Tenofovir]
- activity at 0.05 µM [1]: 110%
- activity at 0.5 µM [1]: 106%
- activity at 5 µM [1]: 107%

SMILES: Nc1nc(Cl)nc2c1ncn2[C@@H]1O[C@H](CO)[C@@H](O)[C@H]1O [2-Chloroadenosine]
- activity at 0.05 µM [1]: 148%
- activity at 0.5 µM [1]: 143%
- activity at 5 µM [1]: 145%

SMILES: CC(=O)OC[C@H]1O[C@@H](n2ncc(=O)[nH]c2=O)[C@H](OC(C)=O)[C@@H]1OC(C)=O [6-azauridine triacetate]
- plasma concentrations [7]: ≥ 100 µM
